Experimental data: patent publication US9598423B2 (BRISTOL-MYERS SQUIBB COMPANY, priority 2013, dated 2017)

How the values were obtained:
CK1ε = CK1ε (Homo sapiens (Human), UniProt P49674); experiment: CK1ε kinase assay (Caliper LABCHIP electrophoretic separation of fluoresceinated peptide substrate and product); format: biochemical; settings: 200 pM CK1ε, 50 μM ATP, 1.5 μM peptide substrate, 22 hours at room temperature; read-out: CK1ε (IC50)
Procedure, shortened: (§1)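 Kinase reactions ran 22 h at room temperature, were stopped with EDTA, and phosphorylated product was separated electrophoretically from unphosphorylated fluoresceinated peptide. Compounds were tested at eleven concentrations from 10 mM DMSO stocks. IC50 by non-linear regression.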

CK1δ = CK1δ (Homo sapiens (Human), UniProt P48730); experiment: CK1δ kinase assay (Caliper LABCHIP electrophoretic separation of fluoresceinated peptide substrate and product); format: biochemical; settings: 200 pM CK1δ, 50 μM ATP, 1.5 μM peptide substrate, 22 hours at room temperature; read-out: CK1δ (IC50)
Sequence of CK1δ (P48730 whole entry): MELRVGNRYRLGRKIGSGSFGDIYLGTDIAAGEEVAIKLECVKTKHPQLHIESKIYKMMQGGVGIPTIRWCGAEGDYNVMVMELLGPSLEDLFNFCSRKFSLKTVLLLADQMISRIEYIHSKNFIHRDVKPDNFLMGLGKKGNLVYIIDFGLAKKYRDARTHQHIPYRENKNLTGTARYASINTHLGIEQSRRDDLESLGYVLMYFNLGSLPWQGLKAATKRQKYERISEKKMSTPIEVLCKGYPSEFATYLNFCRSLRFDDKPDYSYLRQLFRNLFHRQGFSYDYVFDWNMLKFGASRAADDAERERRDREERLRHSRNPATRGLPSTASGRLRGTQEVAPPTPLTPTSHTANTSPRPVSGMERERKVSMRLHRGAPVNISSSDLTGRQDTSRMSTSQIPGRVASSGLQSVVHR
Procedure, shortened: as §1

Sequence of CK1ε (P49674 whole entry): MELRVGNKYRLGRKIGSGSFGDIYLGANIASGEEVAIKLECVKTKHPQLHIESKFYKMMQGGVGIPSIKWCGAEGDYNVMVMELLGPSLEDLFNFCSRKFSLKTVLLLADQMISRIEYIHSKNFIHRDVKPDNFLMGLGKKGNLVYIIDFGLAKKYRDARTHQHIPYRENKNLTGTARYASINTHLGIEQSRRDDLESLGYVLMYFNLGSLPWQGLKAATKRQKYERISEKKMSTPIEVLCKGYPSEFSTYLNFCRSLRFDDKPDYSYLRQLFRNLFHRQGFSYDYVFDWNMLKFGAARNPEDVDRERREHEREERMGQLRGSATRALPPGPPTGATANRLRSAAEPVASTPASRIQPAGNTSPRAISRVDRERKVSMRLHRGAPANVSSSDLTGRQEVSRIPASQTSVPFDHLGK

SMILES | IC50 (CK1ε) [nM] | IC50 (CK1δ) [nM]
CS(=O)(=O)c1ccc(-c2nn3c(c2C(N)=O)CN(C(=O)Nc2ccc(C#N)cc2)CC3)cc1 [Compound 290, N^5-(4-Cyanophenyl)-2-(4-(methylsulfonyl)phenyl)-6,7-dihydropyrazolo[1,5-a] pyrazine-3,5(4H)-dicarboxamide] | 100 to 2000 | 100 to 2000
CC1Cn2nc(-c3ccc(F)c(Cl)c3)c(C(N)=O)c2CN1C(=O)Nc1ccc(C#N)cc1 (single isomer, unassigned) [Compound 329, 2-(3-Chloro-4-fluorophenyl)-N^5-(4-cyanophenyl)-6-methyl-6,7-dihydropyrazolo[1,5-a]pyrazine-3,5(4H)-dicarboxamide] | 0.01 to 10 | 0.01 to 10
NC(=O)c1c(-c2cccc(F)c2)nn2c1CN(C(=O)Nc1ccc(Cl)nc1)CC2 [Compound 85, N^5-(6-Chloropyridin-3-yl)-2-(3-fluorophenyl)-6,7-dihydropyrazolo[1,5-a]pyrazine-3,5(4H)-dicarboxamide] | 0.01 to 10 | 0.01 to 10
NC(=O)c1c(-c2cccc(F)c2)nn2c1CN(C(=O)Nc1ccc(Oc3ccccc3)cc1)CC2 [Compound 58, 2-(3-Fluorophenyl)-N^5-(4-phenoxyphenyl)-6,7-dihydropyrazolo[1,5-a]pyrazine-3,5(4H)-dicarboxamide] | 0.01 to 10 | 0.01 to 10
NC(=O)c1c(-c2cccc(Cl)c2)nn2c1CN(C(=O)Nc1ccc(N3CCCCC3)cc1)C[C@@H]2CF [Compound A11, (R)-2-(3-Chlorophenyl)-7-(fluoromethyl)-N^5-(4-(piperidin-1-yl)phenyl)-6,7-dihydropyrazolo[1,5-a]pyrazine-3,5(4H)-dicarboxamide] | 0.01 to 10 | 0.01 to 10
CC(C)(OC(=O)N1CCC(NC(=O)N2CCn3nc(-c4cccc(F)c4)c(C(N)=O)c3C2)CC1)C(F)(F)F [Compound 101, 1,1,1-Trifluoro-2-methylpropan-2-yl 4-(3-carbamoyl-2-(3-fluorophenyl)-4,5,6,7-tetrahydropyrazolo[1,5-a]pyrazine-5-carboxamido)piperidine-1-carboxylate] | 0.01 to 10 | 0.01 to 10
Cc1ccc(-c2nn3c(c2C(N)=O)CN(C(=O)Nc2ccc4c(c2)OC(F)(F)O4)CC3)cc1Cl [Compound 250, 2-(3-Chloro-4-methylphenyl)-N^5-(2,2-difluorobenzo[d][1,3]dioxol-5-yl)-6,7-dihydropyrazolo[1,5-a] pyrazine-3,5(4H)-dicarboxamide] | 0.01 to 10 | 0.01 to 10
CC1Cn2nc(-c3ccc(Cl)c(Cl)c3)c(C(N)=O)c2CN1C(=O)Nc1ccc(C#N)cc1 (single isomer, unassigned) [Compound 333, N^5-(4-Cyanophenyl)-2-(3,4-dichlorophenyl)-6-methyl-6,7-dihydropyrazolo[1,5-a]pyrazine-3,5(4H)-dicarboxamide] | 0.01 to 10 | 0.01 to 10
NC(=O)c1c(-c2cc(Cl)c(F)c(Cl)c2)nn2c1CN(C(=O)Nc1ccc(C(F)(F)F)cc1)CC2 [Compound 262, 2-(3,5-Dichloro-4-fluorophenyl)-N^5-(4-(trifluoromethyl)phenyl)-6,7-dihydropyrazolo[1,5-a]pyrazine-3,5(4H)-dicarboxamide] | 0.01 to 10 | 0.01 to 10
NC(=O)c1c(-c2cc(F)cc(Cl)c2)nn2c1CN(C(=O)Nc1ccc(Cl)c(Cl)c1)CC2 [Compound 217, 2-(3-Chloro-5-fluorophenyl)-N^5-(3,4-dichlorophenyl)-6,7-dihydropyrazolo[1,5-a] pyrazine-3,5(4H)-dicarboxamide] | 0.01 to 10 | 0.01 to 10
CS(=O)(=O)c1cccc(-c2nn3c(c2C(N)=O)CN(C(=O)Nc2ccc(C#N)cc2)CC3)c1 [Compound 286, N^5-(4-Cyanophenyl)-2-(3-(methylsulfonyl)phenyl)-6,7-dihydropyrazolo[1,5-a] pyrazine-3,5(4H)-dicarboxamide] | 100 to 2000 | 100 to 2000
N#Cc1ccc(NC(=O)N2Cc3c(C(N)=O)c(-c4ccc(F)c(Cl)c4)nn3C(C(=O)NC3CCOCC3)C2)cc1 (single isomer, unassigned) [Compound A29, 2-(3-Chloro-4-fluorophenyl)-N^5-(4-cyanophenyl)-N^7-(tetrahydro-2H-pyran-4-yl)-6,7-dihydropyrazolo[1,5-a]pyrazine-3,5,7(4H)-tricarboxamide] | 10 to 100 | 10 to 100
CC1Cn2nc(-c3ccc(F)c(Cl)c3)c(C(N)=O)c2CN1C(=O)Nc1ccc(C#N)cc1 (single isomer, unassigned) [Compound 330, 2-(3-Chloro-4-fluorophenyl)-N^5-(4-cyanophenyl)-6-methyl-6,7-dihydropyrazolo[1,5-a]pyrazine-3,5(4H)-dicarboxamide] | 0.01 to 10 | 0.01 to 10
N#Cc1ccc(NC(=O)N2CCn3nc(-c4cccc(Cl)c4Cl)c(C(N)=O)c3C2)cc1 [Compound 287, N^5-(4-Cyanophenyl)-2-(2,3-dichlorophenyl)-6,7-dihydropyrazolo[1,5-a] pyrazine-3,5(4H)-dicarboxamide] | 0.01 to 10 | 10 to 100
CC(C)(C)C(=O)N1CCC(NC(=O)N2CCn3nc(-c4cccc(F)c4)c(C(N)=O)c3C2)CC1 [Compound 98, 2-(3-Fluorophenyl)-N^5-(1-pivaloylpiperidin-4-yl)-6,7-dihydropyrazolo[1,5-a]pyrazine-3,5(4H)-dicarboxamide] | 0.01 to 10 | 0.01 to 10
NC(=O)c1c(-c2ccc(F)c(Cl)c2)nn2c1CN(C(=O)Nc1ccc(OC(F)(F)F)cc1)CC2 [Compound 181, 2-(3-Chloro-4-fluorophenyl)-N^5-(4-(trifluoromethoxy)phenyl)-6,7-dihydropyrazolo[1,5-a] pyrazine-3,5(4H)-dicarboxamide] | 0.01 to 10 | 0.01 to 10
NC(=O)c1c(-c2cccc(F)c2)nn2c1CN(C(=O)Nc1ccc(C(F)(F)F)cc1)CC2 [Compound 21, 2-(3-Fluorophenyl)-N^5-(4-(trifluoromethyl)phenyl)-6,7-dihydropyrazolo[1,5-a]pyrazine-3,5(4H)-dicarboxamide] | 0.01 to 10 | 0.01 to 10
Cc1cc(F)cc(-c2nn3c(c2C(N)=O)CN(C(=O)Nc2ccc4c(c2)OC(F)(F)O4)CC3)c1 [Compound 227, N^5-(2,2-Difluorobenzo[d] [1,3]dioxol-5-yl)-2-(3-fluoro-5-methylphenyl)-6,7-dihydropyrazolo[1,5-a] pyrazine-3,5(4H)-dicarboxamide] | 0.01 to 10 | 0.01 to 10
N#Cc1ccc(NC(=O)N2Cc3c(C(N)=O)c(-c4ccc(F)c(Cl)c4)nn3C3(COC3)C2)cc1 [Compound A88, 2′-(3-Chloro-4-fluorophenyl)-N^5′-(4-cyanophenyl)-4′H-spiro[oxetane-3,7′-pyrazolo[1,5-a]pyrazine]-3′,5′(6′H)-dicarboxamide] | 0.01 to 10 | 0.01 to 10
Cc1nc2cc(-c3nn4c(c3C(N)=O)CN(C(=O)Nc3ccc(C#N)cc3)CC4)cc(Cl)c2o1 [Compound 311, 2-(7-Chloro-2-methylbenzo[d]oxazol-5-yl)-N^5-(4-cyanophenyl)-6,7-dihydropyrazolo[1,5-a]pyrazine-3,5(4H)-dicarboxamide] | 0.01 to 10 | 0.01 to 10
N#Cc1ccc(NC(=O)N2CCn3nc(-c4cnc(Cl)c(Cl)c4)c(C(N)=O)c3C2)cc1 [Compound 297, N^5-(4-Cyanophenyl)-2-(5,6-dichloropyridin-3-yl)-6,7-dihydropyrazolo[1,5-a]pyrazine-3,5(4H)-dicarboxamide] | 0.01 to 10 | 0.01 to 10
Cc1cc(-c2nn3c(c2C(N)=O)CN(C(=O)Nc2ccc(C#N)cc2)CC3)ccc1F [Compound 248, N^5-(4-Cyanophenyl)-2-(4-fluoro-3-methylphenyl)-6,7-dihydropyrazolo[1,5-a]pyrazine-3,5(4H)-dicarboxamide] | 0.01 to 10 | 0.01 to 10
NC(=O)c1c(-c2cccc(F)c2)nn2c1CN(C(=O)Nc1ccc(F)cc1)CC2 [Compound 16, 2-(3-Fluorophenyl)-N^5-(4-fluorophenyl)-6,7-dihydropyrazolo[1,5-a]pyrazine-3,5(4H)-dicarboxamide] | 0.01 to 10 | 0.01 to 10
COC(=O)N1CCC(NC(=O)N2CCn3nc(-c4cccc(F)c4)c(C(N)=O)c3C2)CC1 [Compound 99, Methyl 4-(3-carbamoyl-2-(3-fluorophenyl)-4,5,6,7-tetrahydropyrazolo[1,5-a]pyrazine-5-carboxamido)piperidine-1-carboxylate] | 0.01 to 10 | 0.01 to 10
NC(=O)c1c(-c2cccc(Cl)c2)nn2c1CN(C(=O)Nc1cc(F)cc(F)c1)CC2 [Compound 169, 2-(3-Chlorophenyl)-N^5-(3,5-difluorophenyl)-6,7-dihydropyrazolo[1,5-a] pyrazine-3,5(4H)-dicarboxamide] | 0.01 to 10 | 0.01 to 10
NC(=O)c1c(-c2ccc(F)c(Cl)c2)nn2c1CN(C(=O)Nc1cccc(OC(F)(F)F)c1)CC2 [Compound 184, 2-(3-Chloro-4-fluorophenyl)-N^5-(3-(trifluoromethoxy)phenyl)-6,7-dihydropyrazolo[1,5-a] pyrazine-3,5(4H)-dicarboxamide] | 0.01 to 10 | 0.01 to 10
Cc1cc(NC(=O)N2CCn3nc(-c4cnc(F)c(Cl)c4)c(C(N)=O)c3C2)ccc1C#N [Compound 294, 2-(5-Chloro-6-fluoropyridin-3-yl)-N^5-(4-cyano-3-methylphenyl)-6,7-dihydropyrazolo[1,5-a] pyrazine-3,5(4H)-dicarboxamide] | 0.01 to 10 | 0.01 to 10
Cc1nc(-c2ccc(NC(=O)N3CCn4nc(-c5cccc(Cl)c5)c(C(N)=O)c4C3)cc2)cs1 [Compound A46, 2-(3-Chlorophenyl)-N^5-(4-(2-methylthiazol-4-yl)phenyl)-6,7-dihydropyrazolo[1,5-a]pyrazine-3,5(4H)-dicarboxamide] | 0.01 to 10 | 0.01 to 10
